Literature values, collected in patent US20110275649A1, “Combination therapy for the prevention of statin induced diabetes” (Palmetto Pharmaceuticals LLC, priority 2010, published 2011).

Assays:
late sodium channel = late sodium channel (Homo sapiens, UniProt Q14524)
CYP3A4 = CYP3A4 (Homo sapiens, UniProt P08684)
[1] = tested on: 3-keto-CoA-thiolase, or 3-KAT
[2] = compared with pravastatin
[3] = tested on: carnitine palmitoyltransferase-1: CPT-1; conditions: in vitro studies; e.g. by inhibition of CPT-1
[4] = JUPITER trial

Sequence of CYP3A4 (P08684 whole entry): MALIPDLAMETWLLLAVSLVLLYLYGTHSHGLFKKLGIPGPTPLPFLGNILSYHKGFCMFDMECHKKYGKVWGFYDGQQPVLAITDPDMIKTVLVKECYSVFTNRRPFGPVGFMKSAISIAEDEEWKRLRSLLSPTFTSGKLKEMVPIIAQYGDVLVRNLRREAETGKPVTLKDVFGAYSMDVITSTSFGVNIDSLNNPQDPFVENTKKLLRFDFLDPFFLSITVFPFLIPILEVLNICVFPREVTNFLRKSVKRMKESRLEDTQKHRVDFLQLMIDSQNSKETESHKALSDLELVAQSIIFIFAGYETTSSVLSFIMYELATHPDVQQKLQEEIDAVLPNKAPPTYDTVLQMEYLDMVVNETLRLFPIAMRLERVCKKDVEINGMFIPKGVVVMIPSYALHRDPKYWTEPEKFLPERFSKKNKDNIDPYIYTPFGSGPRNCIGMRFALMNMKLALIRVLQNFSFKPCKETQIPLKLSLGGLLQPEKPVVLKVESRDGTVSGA
Sequence of late sodium channel (Q14524 whole entry): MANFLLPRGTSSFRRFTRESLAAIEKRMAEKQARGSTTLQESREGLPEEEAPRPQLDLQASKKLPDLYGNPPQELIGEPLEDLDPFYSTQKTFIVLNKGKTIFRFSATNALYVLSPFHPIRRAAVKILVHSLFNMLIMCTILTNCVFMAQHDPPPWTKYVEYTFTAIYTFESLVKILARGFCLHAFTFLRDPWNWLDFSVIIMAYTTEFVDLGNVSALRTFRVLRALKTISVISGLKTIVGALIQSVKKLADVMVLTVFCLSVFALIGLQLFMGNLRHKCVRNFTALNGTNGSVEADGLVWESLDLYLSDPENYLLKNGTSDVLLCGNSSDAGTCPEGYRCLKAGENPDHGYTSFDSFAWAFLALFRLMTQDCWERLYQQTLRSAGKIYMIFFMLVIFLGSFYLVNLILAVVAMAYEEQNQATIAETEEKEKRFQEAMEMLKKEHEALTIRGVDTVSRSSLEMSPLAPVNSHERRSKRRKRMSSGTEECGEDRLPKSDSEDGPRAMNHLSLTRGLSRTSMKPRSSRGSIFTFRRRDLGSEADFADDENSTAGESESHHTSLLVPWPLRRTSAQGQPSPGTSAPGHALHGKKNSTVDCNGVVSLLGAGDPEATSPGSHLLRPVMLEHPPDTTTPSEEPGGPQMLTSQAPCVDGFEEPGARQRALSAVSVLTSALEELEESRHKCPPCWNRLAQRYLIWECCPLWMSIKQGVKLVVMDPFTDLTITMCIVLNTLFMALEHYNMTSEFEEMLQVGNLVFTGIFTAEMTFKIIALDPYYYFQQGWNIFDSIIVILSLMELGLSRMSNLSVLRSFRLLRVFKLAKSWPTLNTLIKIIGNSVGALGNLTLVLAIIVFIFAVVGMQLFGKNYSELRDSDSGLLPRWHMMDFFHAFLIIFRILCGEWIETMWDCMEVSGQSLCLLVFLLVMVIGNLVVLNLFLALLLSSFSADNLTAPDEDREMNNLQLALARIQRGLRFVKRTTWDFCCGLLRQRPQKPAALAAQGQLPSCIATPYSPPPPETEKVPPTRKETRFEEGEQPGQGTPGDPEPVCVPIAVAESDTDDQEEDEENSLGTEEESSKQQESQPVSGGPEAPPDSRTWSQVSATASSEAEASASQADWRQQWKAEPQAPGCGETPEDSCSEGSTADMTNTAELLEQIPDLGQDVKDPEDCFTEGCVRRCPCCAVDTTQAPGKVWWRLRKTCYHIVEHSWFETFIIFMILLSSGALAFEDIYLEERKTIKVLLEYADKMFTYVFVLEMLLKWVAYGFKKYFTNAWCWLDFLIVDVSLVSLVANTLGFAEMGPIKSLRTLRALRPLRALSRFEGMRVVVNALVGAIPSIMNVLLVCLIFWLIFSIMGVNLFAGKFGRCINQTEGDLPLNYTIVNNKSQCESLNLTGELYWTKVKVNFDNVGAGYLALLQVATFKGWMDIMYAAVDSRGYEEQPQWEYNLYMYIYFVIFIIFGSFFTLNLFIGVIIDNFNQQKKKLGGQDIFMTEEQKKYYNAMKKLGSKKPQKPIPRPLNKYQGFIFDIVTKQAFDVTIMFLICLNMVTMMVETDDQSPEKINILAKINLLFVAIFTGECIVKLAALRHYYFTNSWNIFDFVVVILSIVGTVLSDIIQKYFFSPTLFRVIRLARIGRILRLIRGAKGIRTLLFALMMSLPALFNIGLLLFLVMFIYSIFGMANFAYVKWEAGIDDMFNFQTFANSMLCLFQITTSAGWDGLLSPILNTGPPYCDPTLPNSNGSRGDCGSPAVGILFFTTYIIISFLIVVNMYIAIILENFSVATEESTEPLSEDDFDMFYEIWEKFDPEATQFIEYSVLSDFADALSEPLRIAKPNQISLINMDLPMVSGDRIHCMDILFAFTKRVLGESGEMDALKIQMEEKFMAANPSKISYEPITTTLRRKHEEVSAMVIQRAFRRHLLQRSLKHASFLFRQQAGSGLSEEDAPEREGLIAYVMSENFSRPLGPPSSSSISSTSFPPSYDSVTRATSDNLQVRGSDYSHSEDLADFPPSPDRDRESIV

COc1ccccc1OCC(O)CN1CCN(CC(=O)Nc2c(C)cccc2C)CC1 (stereo not drawn) [ranolazine]
arrhythmogenic events from QT prolongation (QT interval; Merlin-TIMI 36): did not cause excess arrythmogenic events
QT interval (QT interval; in vivo): causes QT interval prolongation
late sodium channel inhibition (late sodium channel): inhibits the late sodium channel

CC[C@H](C)C(=O)O[C@H]1C[C@H](O)C=C2C=C[C@H](C)[C@H](CC[C@@H](O)C[C@@H](O)CC(=O)O)[C@H]21 [pravastatin]
lipid / water solubility: water soluble

O=C(O)C[C@H](O)C[C@H](O)/C=C/c1c(C2CC2)nc2ccccc2c1-c1ccc(F)cc1 [pitavastatin]
metabolism by CYP3A4 (CYP3A4): does not undergo metabolism by the 3A4 system

COc1ccc(CN2CCNCC2)c(OC)c1OC [trimetazidine]
inhibition of 3-KAT [1]: inhibition of the enzyme 3-keto-CoA-thiolase

CC(C)c1c(C(=O)Nc2ccccc2)c(-c2ccccc2)c(-c2ccc(F)cc2)n1CC[C@@H](O)C[C@@H](O)CC(=O)O [atorvastatin]
likelihood to induce diabetes [2]: much more likely to induce diabetes than pravastatin

C1CCC(C(CC2CCCCN2)C2CCCCC2)CC1 (stereo not drawn) [perhexiline]
myocardial fatty acid catabolism [3]: causes inhibition of myocardial fatty acid catabolism

CC(C)c1nc(N(C)S(C)(=O)=O)nc(-c2ccc(F)cc2)c1/C=C/[C@@H](O)C[C@@H](O)CC(=O)O [rosuvastatin]
diabetes in the group receiving the statin [4]: increase in diabetes
